Measurements published in article PMC7827648 (Molecules, 2021).
Where “and” joins values, the source holds several entries; their conditions need not be identical. Equal entries are not always repeated. Where two headings read alike, the source gives them in different places.

Key:
[1] = tested on: HeLa (adenocarcinoma of the cervix uterus) cells; test: Cytotoxicity, MTT assay, HeLa cells; assay type: cell-based; conditions: Homo sapiens, read-out: IC50, 50% inhibition of the cell population growth, 72 h, mean ± SD
Procedure: (§1) The cytotoxicity of the newly synthesized Schiff bases was evaluated in vitro in a panel of cultured tumor cells, assessing cell viability at scalar concentrations of the test compounds (≤500 μM) by MTT (i.e., 3-(4,5-dimethylthiazol-2-yl)-2,5-diphenyltetrazolium bromide) and Alamar Blue assays, using doxorubicin as the positive controls. Most of the compounds were tested against RD (rhabdomyosarcoma), HCT116 (intestinal carcinoma), HeLa (adenocarcinoma of the cervix uterus) and A549 (lung adenocarcinoma) cell lines, whereas five representative compounds of the subsets were tested also against K562 (chronic myelogenous leukemia) tumor cells.
(§2) The experiments were carried out in triplicate.

[2] = tested on: HCT116 (intestinal carcinoma) cells; test: Cytotoxicity, MTT assay, HCT116 cells; assay type: cell-based; conditions: Homo sapiens, HCT-116, read-out: IC50, 50% inhibition of the cell population growth, 72 h, mean ± SD
Procedure: as §1, §2

[3] = tested on: RD (rhabdomyosarcoma) cells; test: Cytotoxicity, MTT assay, RD cells; assay type: cell-based; conditions: Homo sapiens, read-out: IC50, 50% inhibition of the cell population growth, 72 h, mean ± SD
Procedure: as §1, §2

[4] = tested on: A549 (lung adenocarcinoma) cells; set-up: method as in doi:10.1055/s-0036-1588486; conditions: read-out: IC50, 50% inhibition of the cell population growth, A549, data taken from ref [3]; cited from earlier work
[5] = tested on: HCT116 (intestinal carcinoma) cells; set-up: method as in doi:10.1055/s-0036-1588486; conditions: read-out: IC50, 50% inhibition of the cell population growth, HCT116, data taken from ref [3]; cited from earlier work
[6] = tested on: RD (rhabdomyosarcoma) cells; set-up: method as in doi:10.1055/s-0036-1588486; conditions: read-out: IC50, 50% inhibition of the cell population growth, RD, data taken from ref [3]; cited from earlier work
[7] = tested on: K562 (chronic myelogenous leukemia) cells; test: Cytotoxicity, Alamar Blue (resazurin) assay, K562 cells; assay type: cell-based; conditions: Homo sapiens, read-out: IC50, 50% inhibition of the cell population growth, 72 h, mean ± SD
Procedure: as §1, §2

[8] = tested on: A549 (lung adenocarcinoma) cells; test: Cytotoxicity, MTT assay, A549 cells; assay type: cell-based; conditions: Homo sapiens, read-out: IC50, 50% inhibition of the cell population growth, 72 h, mean ± SD
Procedure: as §1, §2

[9] = target: T1, human butyrylcholinesterase (BChE) (Homo sapiens, UniProt P06276); test: BChE inhibition, Ellman's method; assay type: biochemical; conditions: mean ± SD (n = 3), n.i. = no inhibition; for inhibition at 10 µM: read-out: % inhibition hBChE
T1 construct: BChE from human serum (50 U/mg); from tissue; host or cells: human serum
Procedure: (§3) The ChE inhibition assay was carried out using the Ellman’s spectrophotometric method [23], as applied to the 96-well plate technique [24] on a Tecan Infinite M1000 Pro instrument (Cernusco s.N., Italy).

[10] = target: human acetylcholinesterase (AChE) (Homo sapiens, UniProt P22303); test: biochemical; conditions: for inhibition mechanism on hAChE: Michaelis-Menten / Lineweaver-Burk plots; for Ki: complete kinetics, human AChE, read-out: inhibition constant (Ki) hAChE; for IC50: human recombinant AChE, pH 8.0, mean ± SD (n = 3), read-out: IC50 hAChE
Procedure: as §3

in vitro = conditions: human
human MAO A = target: T2, human MAO A (Homo sapiens, UniProt P21397); test: biochemical; conditions: for inhibition at 10 µM: read-out: % inhibition hMAO A
T2 construct: host or cells: baculovirus-infected insect cells (microsomes)
T2 sequence (P21397 1-527): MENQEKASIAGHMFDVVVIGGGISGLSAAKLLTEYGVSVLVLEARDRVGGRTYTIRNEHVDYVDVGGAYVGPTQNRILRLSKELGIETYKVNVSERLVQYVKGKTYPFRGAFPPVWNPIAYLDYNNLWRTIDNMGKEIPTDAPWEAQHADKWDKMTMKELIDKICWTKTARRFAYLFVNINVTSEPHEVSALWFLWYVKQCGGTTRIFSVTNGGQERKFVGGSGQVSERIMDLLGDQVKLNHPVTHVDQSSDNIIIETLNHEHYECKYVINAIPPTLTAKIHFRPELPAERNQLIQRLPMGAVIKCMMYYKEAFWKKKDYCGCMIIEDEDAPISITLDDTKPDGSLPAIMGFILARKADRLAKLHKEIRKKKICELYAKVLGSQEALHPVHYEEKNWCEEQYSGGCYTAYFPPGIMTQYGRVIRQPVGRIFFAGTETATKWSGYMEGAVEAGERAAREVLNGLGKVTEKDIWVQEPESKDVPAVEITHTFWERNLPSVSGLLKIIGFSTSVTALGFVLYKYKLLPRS
Procedure: (§4) The inhibition of human recombinant MAO A (250 U/mg) and B (59 U/mg; microsomes from baculovirus-infected insect cells) was evaluated using the reported 96-well plate technique [12]. on a Tecan Infinite M1000 Pro instrument (Cernusco s.N., Italy). […] After addition of the enzyme and 30 min of incubation, NaOH was added and the fluorescence read at the 310/400 excitation/emission wavelength.

human MAO B = target: T3, human MAO B (Homo sapiens, UniProt P27338); test: biochemical; conditions: for inhibition at 10 µM: mean ± SD (n = 3), read-out: % inhibition hMAO B
T3 construct: host or cells: baculovirus-infected insect cells (microsomes)
T3 sequence (P27338 1-520): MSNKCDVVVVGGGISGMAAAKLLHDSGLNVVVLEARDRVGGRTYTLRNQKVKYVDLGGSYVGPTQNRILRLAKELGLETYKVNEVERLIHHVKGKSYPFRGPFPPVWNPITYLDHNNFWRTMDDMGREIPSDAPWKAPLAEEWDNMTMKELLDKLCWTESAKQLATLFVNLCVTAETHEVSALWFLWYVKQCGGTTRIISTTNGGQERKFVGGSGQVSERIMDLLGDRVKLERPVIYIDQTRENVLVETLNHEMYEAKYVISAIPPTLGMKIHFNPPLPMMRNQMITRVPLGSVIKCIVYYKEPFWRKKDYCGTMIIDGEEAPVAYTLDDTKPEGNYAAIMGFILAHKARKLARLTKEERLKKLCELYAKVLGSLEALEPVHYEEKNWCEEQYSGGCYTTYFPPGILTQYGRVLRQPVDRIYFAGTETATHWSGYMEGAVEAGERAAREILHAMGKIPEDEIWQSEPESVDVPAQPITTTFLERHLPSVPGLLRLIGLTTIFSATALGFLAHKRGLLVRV
Procedure: as §4

[11] = target: T4, β-amyloid (Aβ)1–40 self-aggregation (Homo sapiens, UniProt P05067); test: Inhibition of self-induced Aβ40 aggregation, thioflavin T fluorescence; assay type: biochemical; conditions: for IC50: PBS pH 7.4, 2 h
T4 construct: self-aggregation of Aβ peptides 1–40 (Aβ40)
Procedure: Molecules able to inhibit simultaneously AChE and β-amyloid (Aβ) aggregation/neurotoxicity may have potential as drugs for the treatment of AD [14]. Herein, the new DHPPIQ derivatives were evaluated for the inhibitory effects on the self-aggregation of Aβ peptides 1–40 (Aβ40), through a test based on the measurement of thioflavin T (ThT) fluorescence. Quercetin, which is a strong inhibitor of in vitro Aβ self-aggregation, was used as a positive control.
Each compound was initially tested at a 100-μM concentration. […] […].
According to an already reported 96-well plate procedure, the test compounds at 100 μM were incubated with Aβ40 (30 μM) and 2% HFIP (1,1,1,3,3,3-hexafluoro-2-propanol), used as aggregation enhancer in PBS pH 7.4 for 2 h at room temperature. After the addition of ThT, the fluorescence was read at the 440/485 nm excitation/emission wavelength. Experiments were performed in triplicate, and the % inhibition values calculated as mean ± SD.

[12] = tested on: HeLa (adenocarcinoma of the cervix uterus) cells; set-up: method as in doi:10.1055/s-0036-1588486; conditions: read-out: IC50, 50% inhibition of the cell population growth, HeLa, data taken from ref [3]; cited from earlier work
[13] = Aβ40 30 μM, 2% HFIP, ThT, mean ± SD (n = 3)

T1 sequence (P06276 29-602): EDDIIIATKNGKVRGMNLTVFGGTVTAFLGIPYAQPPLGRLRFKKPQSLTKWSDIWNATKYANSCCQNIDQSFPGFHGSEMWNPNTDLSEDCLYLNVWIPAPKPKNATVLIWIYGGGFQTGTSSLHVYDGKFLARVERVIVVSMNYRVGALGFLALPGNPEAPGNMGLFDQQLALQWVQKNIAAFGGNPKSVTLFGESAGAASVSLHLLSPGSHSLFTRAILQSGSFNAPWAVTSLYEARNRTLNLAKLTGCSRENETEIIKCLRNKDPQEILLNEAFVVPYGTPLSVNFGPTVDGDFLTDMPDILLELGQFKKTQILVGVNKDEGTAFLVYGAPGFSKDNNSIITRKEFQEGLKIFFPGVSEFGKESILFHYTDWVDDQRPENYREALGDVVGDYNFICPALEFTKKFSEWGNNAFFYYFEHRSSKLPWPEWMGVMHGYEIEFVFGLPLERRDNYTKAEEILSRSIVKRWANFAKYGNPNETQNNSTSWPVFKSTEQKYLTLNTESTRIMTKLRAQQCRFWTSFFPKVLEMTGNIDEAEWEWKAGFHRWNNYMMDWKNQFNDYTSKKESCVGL
T4 sequence (P05067 672-711 limits assumed): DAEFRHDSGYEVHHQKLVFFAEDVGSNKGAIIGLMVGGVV
Chain of human acetylcholinesterase (AChE) (P22303 32-614): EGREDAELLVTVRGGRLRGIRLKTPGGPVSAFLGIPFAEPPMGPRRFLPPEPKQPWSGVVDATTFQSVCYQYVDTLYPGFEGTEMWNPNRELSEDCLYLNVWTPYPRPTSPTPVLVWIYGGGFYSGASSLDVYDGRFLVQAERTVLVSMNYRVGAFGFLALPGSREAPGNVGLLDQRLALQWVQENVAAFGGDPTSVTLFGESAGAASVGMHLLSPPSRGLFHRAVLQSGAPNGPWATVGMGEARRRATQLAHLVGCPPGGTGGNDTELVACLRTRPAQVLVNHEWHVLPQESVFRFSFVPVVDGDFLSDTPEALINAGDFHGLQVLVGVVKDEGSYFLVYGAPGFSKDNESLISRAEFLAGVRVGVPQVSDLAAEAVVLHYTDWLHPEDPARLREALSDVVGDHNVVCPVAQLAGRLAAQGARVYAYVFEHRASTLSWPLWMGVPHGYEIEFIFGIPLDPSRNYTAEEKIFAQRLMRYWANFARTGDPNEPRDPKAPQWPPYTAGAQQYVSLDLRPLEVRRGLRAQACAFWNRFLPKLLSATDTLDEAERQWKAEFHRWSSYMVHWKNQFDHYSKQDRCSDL

SMILES: CCOc1ccc(-c2c(/C=N/N=C/c3cn4c(c3-c3ccc(OCC)c(OCC)c3)-c3cc(OCC)c(OCC)cc3CC4)cn3c2-c2cc(OCC)c(OCC)cc2CC3)cc1OCC [Compound 18, (1E,2E)-1,2-bis((1-[3,4-diethoxyphenyl]-8,9-diethoxy-5,6-dihydropyrrolo[2,1-a]isoquinolin-2-yl)methylene)hydrazine]
- IC50 [1]: 302 ± 23 µM
- melting point: 230 to 232 °C
- IC50 [2]: > 500 µM

SMILES: CCOc1ccc(-c2c(/C=N/c3ccc(OC)cc3)c(-c3ccccc3)n3c2-c2cc(OCC)c(OCC)cc2CC3)cc1OCC [Compound 8, (E)-1-(1-(3,4-diethoxyphenyl)-8,9-diethoxy-3-phenyl-5,6-dihydropyrrolo[2,1-a]isoquinolin-2-yl)-N-(4-methoxyphenyl)methanimine]
- IC50 [1]: 304 ± 10 µM
- melting point: 93 to 95 °C
- IC50 [2]: 286 ± 5 µM
- IC50 [3]: 412 ± 20 µM

SMILES: CCOc1ccc(-c2c(C=O)c(-c3ccccc3)n3c2-c2cc(OCC)c(OCC)cc2CC3)cc1OCC [Compound 2]
- IC50 [4]: 229 ± 21 µM
- IC50 [5]: 183 ± 0.1 µM
- IC50 [6]: 365 ± 23 µM

SMILES: CCOc1ccc(-c2c(CN(C)CCNC)cn3c2-c2cc(OCC)c(OCC)cc2CC3)cc1OCC.O=C(O)/C=C/C(=O)O [Compound 17a, 2-(([1-(3,4-diethoxyphenyl]-8,9-diethoxy-5,6-dihydropyrrolo[2,1-a]isoquinolin-2-yl)methyl)(methyl)amino)-N-methylethan-1-aminium (E)-3-carboxyacrylate]
- IC50 [7]: 46.6 ± 1.5 µM
- IC50 [8]: 35.9 ± 2.4 µM
- % inhibition hBChE ([9]; at 10 μM): n.i.
- inhibition mechanism on hAChE [10]: noncompetitive/mixed-type inhibition mechanism
- Ki [10]: 13.6 ± 0.1 µM
- IC50 [10]: 16 µM and 16.4 µM
- IC50 at 72 h (in vitro; SH-SY5Y neuroblastoma cells): 17.9 ± 0.1 µM
- inhibition at 10 µM (human MAO A): 38 ± 5%
- IC50 [1]: 29.7 ± 0.9 µM
- IC50 (human MAO B): 14.3 ± 1.4 µM
- inhibition at 100 µM ([11]; at 100 μM, Aβ40 30 μM, 2% HFIP, ThT, mean ± SD (n = 3)): 31 ± 3%
- IC50 [2]: 18.6 ± 0.4 µM
- IC50 [3]: 10.1 ± 0.1 µM

SMILES: COc1ccc(/N=C/c2c(-c3ccc(F)cc3)c3n(c2-c2ccccc2)CCc2cc(OC)c(OC)cc2-3)cc1 [Compound 12, (E)-1-(1-(4-fluorophenyl)-8,9-dimethoxy-3-phenyl-5,6-dihydropyrrolo[2,1-a]isoquinolin-2-yl)-N-(4-methoxyphenyl)methanimine]
- IC50 [8]: > 500 µM
- IC50 [1]: 450 ± 19 µM
- melting point: 195 to 197 °C
- IC50 [2]: 148 ± 14 µM
- IC50 [3]: > 500 µM

SMILES: COc1ccc(/N=C/c2cn3c(c2-c2ccc(Cl)cc2)-c2cc(OC)c(OC)cc2CC3)cc1 [Compound 9, (E)-1-(1-(4-chlorophenyl)-8,9-dimethoxy-5,6-dihydropyrrolo[2,1-a]isoquinolin-2-yl)-N-(4-methoxyphenyl)methanimine]
- IC50 [7]: 105 ± 8 µM
- IC50 [8]: 99.4 ± 1.1 µM
- inhibition at 10 µM [9]: 13 ± 4%
- IC50 [10]: 29.3 ± 2.3 µM
- IC50 at 72 h (in vitro; SH-SY5Y neuroblastoma cells): 22.1 ± 0.8 µM
- inhibition at 10 µM (human MAO A; at 10 μM, mean ± SD (n = 3)): 39 ± 2%
- IC50 [1]: 35.2 ± 0.7 µM
- inhibition at 10 µM (human MAO B): 29 ± 5%
- IC50 [11, 13]: 46 ± 5 µM
- IC50 [2]: 37.2 ± 2.4 µM
- IC50 [3]: 76.4 ± 4.7 µM

SMILES: COc1cc2c(cc1OC)-c1c(-c3ccc(Cl)cc3)c(/C=N/c3ccc(/N=C/c4cn5c(c4-c4ccc(Cl)cc4)-c4cc(OC)c(OC)cc4CC5)cc3)cn1CC2 [Compound 14, (1E,1’E)-N,N’-(1,4-phenylene)bis(1-(1-[4-chlorophenyl]-8,9-dimethoxy-5,6-dihydropyrrolo[2,1-a]isoquinolin-2-yl)methanimine)]
- IC50 [8]: > 500 µM
- inhibition at 10 µM [9]: 13 ± 1%
- hAChE potency relative to the reference compound galantamine ([10]; 14 vs galantamine): tenfold less potent
- inhibition mechanism on hAChE [10]: noncompetitive/mixed-type inhibition mechanism
- Ki [10]: 4.69 µM
- IC50 [10]: 7.3 ± 0.74 µM
- IC50 at 72 h (in vitro): 29.3 ± 0.1 µM
- IC50 (human MAO A; human recombinant MAO A, kynuramine, mean ± SD (n = 3), read-out: IC50 hMAO A): 12.1 ± 2.3 µM
- IC50 [1]: 310 ± 12 µM
- inhibition at 10 µM (human MAO B): 19 ± 5%
- IC50 [11, 13]: 13 ± 1 µM
- fold stronger inhibition of Aβ40 aggregation than the respective mono-DHPPIQ Schiff base 9 ([11]; ratio of IC50 values, 14 vs 9): 3.5 fold
- IC50 [2]: 390 ± 16 µM
- IC50 [3]: 269 ± 11 µM

SMILES: CCOc1ccc(-c2c(C=O)cn3c2-c2cc(OCC)c(OCC)cc2CC3)cc1OCC [Compound 1]
- IC50 [12]: 44.5 ± 2 µM
- IC50 [4]: 19.7 ± 0.3 µM
- IC50 [5]: 11.8 ± 0.1 µM
- IC50 [6]: 21.3 ± 1.2 µM
